Reference: PubChem BioAssay (NCI)
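Dose response: 5 concentrations. Exposure: 48 h. Format: 96-well plates. Endpoint: linear interpolation; highest concentration if not reached. The concentration for 50% growth inhibition is given as GI50. Definition used: TGI = concentration required for complete inhibition of growth.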

How the values were obtained:
Assay in all cases: NCI anticancer screen, dose series, 48 h
[1] = system: 786-0 renal
[2] = system: A498 renal
[3] = system: A549 NSCLC
[4] = system: ACHN renal
[5] = system: CCRF-CEM leukemia
[6] = system: COLO 205 colon
[7] = system: DU-145 prostate
[8] = system: EKVX NSCLC
[9] = system: HCC-2998 colon
[10] = system: HCT-116 colon
[11] = system: HCT-15 colon
[12] = system: HL-60(TB) leukemia
[13] = system: HOP-62 NSCLC
[14] = system: HOP-92 NSCLC
[15] = system: HS 578T breast
[16] = system: HT29 colon
[17] = system: IGROV1 ovarian
[18] = system: K-562 leukemia
[19] = system: KM12 colon
[20] = system: M14 melanoma
[21] = system: MALME-3M melanoma
[22] = system: MCF7 breast
[23] = system: MDA-MB-231 breast
[24] = system: MDA-MB-435
[25] = system: MOLT-4 leukemia
[26] = system: NCI-H226 lung
[27] = system: NCI-H23 lung
[28] = system: NCI-H460 lung
[29] = system: NCI/ADR-RES ovarian
[30] = system: OVCAR-4 ovarian
[31] = system: OVCAR-5 ovarian
[32] = system: OVCAR-8 ovarian
[33] = system: RPMI-8226 leukemia
[34] = system: RXF 393 renal
[35] = system: SF-268 CNS
[36] = system: SF-295 CNS
[37] = system: SF-539 CNS
[38] = system: SK-MEL-28 melanoma
[39] = system: SK-MEL-5 melanoma
[40] = system: SK-OV-3 ovarian
[41] = system: SN12C renal
[42] = system: SNB-19 CNS
[43] = system: SNB-75 CNS
[44] = system: SR leukemia
[45] = system: SW-620 colon
[46] = system: T-47D breast
[47] = system: TK-10 renal
[48] = system: U251 CNS
[49] = system: UACC-257 melanoma
[50] = system: UACC-62 melanoma
[51] = system: UO-31 renal
[52] = system: BT-549 breast
[53] = system: CAKI-1 renal
[54] = system: LOX IMVI melanoma
[55] = system: NCI-H522 lung
[56] = system: OVCAR-3 ovarian
[57] = system: PC-3 prostate
[58] = system: SK-MEL-2 melanoma

With CN(C)c1ccc(-c2[nH]c(=O)c3ccccc3[n+]2C)cc1 the TGI [1] was greater than 100 µM, the TGI [2] was greater than 100 µM and the TGI [3] was greater than 100 µM. The TGI [4] was greater than 100 µM, the TGI [5] was greater than 100 µM and the TGI [6] was greater than 100 µM. The TGI [7] was greater than 100 µM, the TGI [8] was greater than 100 µM and the TGI [9] was greater than 100 µM. For the same molecule, the TGI [10] was greater than 100 µM, the TGI [11] was greater than 100 µM and the TGI [12] was greater than 100 µM. It also gave a TGI [13] greater than 100 µM, a TGI [14] greater than 100 µM and a TGI [15] greater than 100 µM. It also gave a TGI [16] greater than 100 µM, a TGI [17] greater than 100 µM and a TGI [18] greater than 100 µM. It also gave a TGI [19] greater than 100 µM, a TGI [20] greater than 100 µM and a TGI [21] greater than 100 µM. The TGI [22] was greater than 100 µM, the TGI [23] was greater than 100 µM and the TGI [24] was greater than 100 µM. For the same molecule, the TGI [25] was greater than 100 µM, the TGI [26] was greater than 100 µM and the TGI [27] was greater than 100 µM. The TGI [28] was greater than 100 µM, the TGI [29] was greater than 100 µM and the TGI [30] was greater than 100 µM. It also gave a TGI [31] greater than 100 µM, a TGI [32] greater than 100 µM and a TGI [33] greater than 100 µM. It also gave a TGI [34] greater than 100 µM, a TGI [35] greater than 100 µM and a TGI [36] greater than 100 µM. The TGI [37] was greater than 100 µM, the TGI [38] was greater than 100 µM and the TGI [39] was greater than 100 µM. It also gave a TGI [40] greater than 100 µM, a TGI [41] greater than 100 µM and a TGI [42] greater than 100 µM. It also gave a TGI [43] greater than 100 µM, a TGI [44] greater than 100 µM and a TGI [45] greater than 100 µM. It also gave a TGI [46] greater than 100 µM, a TGI [47] greater than 100 µM and a TGI [48] greater than 100 µM. For the same molecule, the TGI [49] was greater than 100 µM, the TGI [50] was greater than 100 µM and the TGI [51] was greater than 100 µM.
COc1ccc2c(c1)N(CCO)C1=C(C(=O)OC1)C2c1cc(OC)c(OC)c(OC)c1 (stereo unspecified) showed a GI50 [1] of 0.0679 µM, a TGI [1] greater than 50 µM and a GI50 [2] of 0.0147 µM. It also gave a TGI [2] of 0.0616 µM, a GI50 [3] of 0.0266 µM and a TGI [3] greater than 50 µM. It also gave a GI50 [4] of 0.0549 µM, a TGI [4] greater than 50 µM and a GI50 [52] of 0.0919 µM. For the same molecule, the TGI [52] was greater than 50 µM, the GI50 [53] was 0.0852 µM and the TGI [53] was greater than 50 µM. The GI50 [5] was 0.0231 µM, the TGI [5] was greater than 50 µM and the GI50 [6] was 0.015 µM. For the same molecule, the TGI [6] was 0.038 µM, the GI50 [7] was 0.0261 µM and the TGI [7] was 0.188 µM. It also gave a GI50 [9] of 0.0639 µM, a TGI [9] greater than 50 µM and a GI50 [10] of 0.0174 µM. For the same molecule, the GI50 [11] was 0.0622 µM, the TGI [11] was greater than 50 µM and the GI50 [12] was 0.015 µM. For the same molecule, the GI50 [13] was 0.0265 µM, the TGI [13] was greater than 50 µM and the GI50 [14] was 0.0861 µM. The TGI [14] was greater than 50 µM, the GI50 [15] was 0.0279 µM and the TGI [15] was greater than 50 µM. The GI50 [16] was 0.0141 µM, the TGI [16] was 0.0389 µM and the GI50 [17] was 0.0362 µM. It also gave a TGI [17] greater than 50 µM, a GI50 [18] of 0.0196 µM and a TGI [18] greater than 50 µM. It also gave a GI50 [19] of 0.0178 µM, a GI50 [54] of 0.0258 µM and a TGI [54] greater than 50 µM. It also gave a GI50 [20] of 0.0213 µM, a TGI [20] greater than 50 µM and a GI50 [21] of 0.0287 µM. The TGI [21] was greater than 50 µM, the GI50 [22] was 0.0195 µM and the TGI [22] was greater than 50 µM. For the same molecule, the GI50 [23] was 0.055 µM, the TGI [23] was 0.246 µM and the GI50 [24] was less than 0.0108 µM. For the same molecule, the TGI [24] was 0.0272 µM, the GI50 [25] was 0.0938 µM and the TGI [25] was greater than 50 µM. The GI50 [26] was 0.0228 µM, the TGI [26] was greater than 50 µM and the GI50 [27] was 0.0281 µM. The TGI [27] was greater than 50 µM, the GI50 [28] was 0.0196 µM and the TGI [28] was greater than 50 µM. The GI50 [55] was 0.0109 µM, the TGI [55] was 0.0286 µM and the GI50 [29] was 0.0787 µM. For the same molecule, the TGI [29] was 2.7 µM, the GI50 [56] was 0.0133 µM and the TGI [56] was 0.0322 µM. For the same molecule, the GI50 [30] was 0.031 µM, the TGI [30] was greater than 50 µM and the GI50 [31] was 0.0614 µM. For the same molecule, the TGI [31] was greater than 50 µM, the GI50 [32] was 0.0199 µM and the TGI [32] was 0.181 µM. For the same molecule, the GI50 [57] was 0.0247 µM, the TGI [57] was greater than 50 µM and the GI50 [33] was 0.0287 µM. It also gave a TGI [33] greater than 50 µM, a GI50 [34] of 0.0128 µM and a TGI [34] greater than 50 µM. For the same molecule, the GI50 [35] was 0.033 µM, the TGI [35] was greater than 50 µM and the GI50 [36] was 0.014 µM. For the same molecule, the TGI [36] was greater than 50 µM, the GI50 [37] was 0.0176 µM and the TGI [37] was greater than 50 µM. For the same molecule, the GI50 [58] was 0.0267 µM, the TGI [58] was 18.3 µM and the GI50 [39] was 0.0171 µM. For the same molecule, the TGI [39] was 0.0714 µM, the GI50 [40] was 0.0231 µM and the TGI [40] was greater than 50 µM. It also gave a GI50 [41] of 0.0609 µM, a TGI [41] greater than 50 µM and a GI50 [42] of 0.0429 µM. For the same molecule, the TGI [42] was greater than 50 µM, the GI50 [43] was 0.0198 µM and the TGI [43] was greater than 50 µM. The GI50 [44] was 0.0252 µM, the TGI [44] was greater than 50 µM and the GI50 [45] was 0.0196 µM. It also gave a TGI [45] greater than 50 µM, a GI50 [47] of 0.0264 µM and a TGI [47] greater than 50 µM. For the same molecule, the GI50 [48] was 0.0165 µM, the TGI [48] was greater than 50 µM and the GI50 [49] was 0.0226 µM. For the same molecule, the TGI [49] was greater than 50 µM, the GI50 [50] was 0.0208 µM and the TGI [50] was greater than 50 µM. It also gave a GI50 [51] of 0.183 µM and a TGI [51] greater than 50 µM.
O=C1CCCn2c(nc3ccccc32)N1 gave a TGI [1] greater than 100 µM, a TGI [2] greater than 100 µM and a TGI [3] greater than 100 µM. The TGI [4] was greater than 100 µM, the TGI [52] was greater than 100 µM and the TGI [53] was greater than 100 µM. It also gave a TGI [5] greater than 100 µM, a TGI [6] greater than 100 µM and a TGI [8] greater than 100 µM. It also gave a TGI [10] greater than 100 µM, a TGI [11] greater than 100 µM and a TGI [13] greater than 100 µM. It also gave a TGI [14] greater than 100 µM, a TGI [15] greater than 100 µM and a TGI [16] greater than 100 µM. For the same molecule, the TGI [17] was greater than 100 µM, the TGI [18] was greater than 100 µM and the TGI [19] was greater than 100 µM. The TGI [54] was greater than 100 µM, the TGI [20] was greater than 100 µM and the TGI [21] was greater than 100 µM. It also gave a TGI [22] greater than 100 µM, a TGI [23] greater than 100 µM and a TGI [24] greater than 100 µM. For the same molecule, the TGI [25] was greater than 100 µM, the TGI [26] was greater than 100 µM and the TGI [27] was greater than 100 µM. The TGI [28] was greater than 100 µM, the TGI [55] was greater than 100 µM and the TGI [29] was greater than 100 µM. It also gave a TGI [56] greater than 100 µM, a TGI [30] greater than 100 µM and a TGI [31] greater than 100 µM. For the same molecule, the TGI [32] was greater than 100 µM, the TGI [57] was greater than 100 µM and the TGI [33] was greater than 100 µM. It also gave a TGI [34] greater than 100 µM, a TGI [35] greater than 100 µM and a TGI [36] greater than 100 µM. It also gave a TGI [37] greater than 100 µM, a TGI [58] greater than 100 µM and a TGI [39] greater than 100 µM. The TGI [40] was greater than 100 µM, the TGI [42] was greater than 100 µM and the TGI [43] was greater than 100 µM. For the same molecule, the TGI [44] was greater than 100 µM, the TGI [45] was greater than 100 µM and the TGI [46] was greater than 100 µM. It also gave a TGI [47] greater than 100 µM, a TGI [48] greater than 100 µM and a TGI [49] greater than 100 µM. For the same molecule, the TGI [50] was greater than 100 µM and the TGI [51] was greater than 100 µM.
